Reference: paper PMC4728423, “Natural and synthetic flavonoid modulation of TRPC5 channels” (British Journal of Pharmacology, 2016)
Like-named read-outs stand apart in the source and are kept apart here.

Experiments:
human TRPC5 [1] = target: T1, human TRPC5 (Homo sapiens, UniProt Q9UL62); assay: Gd3+-evoked Ca2+ entry in TRPC5-expressing (Tet+) HEK 293 cells; type: cell-based; conditions: for IC50: TRPC5 (Tet+) HEK 293, 50 μM Gd3+, fluo-4, 30 min pretreatment, read-out: IC50, inhibition of Gd3+-evoked Ca2+ entry; for effect on Gd3+-evoked Ca2+ entry (natural flavonoid screen): XRhod-1
T1 construct: expressed in transfected cells
T1 sequence (Q9UL62 1-973): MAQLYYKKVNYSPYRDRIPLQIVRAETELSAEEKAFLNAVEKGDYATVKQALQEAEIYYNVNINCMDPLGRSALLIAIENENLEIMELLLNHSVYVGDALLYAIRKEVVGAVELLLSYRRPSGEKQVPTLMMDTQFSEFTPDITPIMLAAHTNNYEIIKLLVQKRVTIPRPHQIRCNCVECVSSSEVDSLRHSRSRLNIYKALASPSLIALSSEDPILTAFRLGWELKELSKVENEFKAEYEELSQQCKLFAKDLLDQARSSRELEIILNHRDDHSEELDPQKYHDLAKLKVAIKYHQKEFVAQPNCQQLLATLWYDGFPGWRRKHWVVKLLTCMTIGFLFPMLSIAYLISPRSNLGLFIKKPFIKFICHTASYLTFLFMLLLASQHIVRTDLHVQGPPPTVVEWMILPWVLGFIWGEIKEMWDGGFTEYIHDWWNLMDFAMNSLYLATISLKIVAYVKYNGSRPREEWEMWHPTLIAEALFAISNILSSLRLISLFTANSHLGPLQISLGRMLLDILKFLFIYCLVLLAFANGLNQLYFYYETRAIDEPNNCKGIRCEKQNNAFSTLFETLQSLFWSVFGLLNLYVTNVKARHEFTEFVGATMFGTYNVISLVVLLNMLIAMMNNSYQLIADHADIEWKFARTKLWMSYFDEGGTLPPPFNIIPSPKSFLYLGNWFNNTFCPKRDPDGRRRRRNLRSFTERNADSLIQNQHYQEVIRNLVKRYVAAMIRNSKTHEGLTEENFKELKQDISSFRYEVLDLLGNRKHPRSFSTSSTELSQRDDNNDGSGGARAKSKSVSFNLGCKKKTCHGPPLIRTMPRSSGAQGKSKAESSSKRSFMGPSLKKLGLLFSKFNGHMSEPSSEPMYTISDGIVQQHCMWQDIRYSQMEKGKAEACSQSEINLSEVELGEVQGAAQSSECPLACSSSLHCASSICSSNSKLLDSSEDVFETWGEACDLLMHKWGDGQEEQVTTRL

3T3-L1 cells = conditions: cited from earlier work
BKCa channels = test system: BKCa channels; set-up: method as in Cogolludo et al., 2007; Xu et al., 2008b; conditions: ref Cogolludo et al., 2007; Xu et al., 2008b; cited from earlier work
[2] = test system: GABA-evoked ionic currents; set-up: method as in Goutman et al., 2003; conditions: ref Goutman et al., 2003; cited from earlier work
Cav1.2 channels = test system: Cav1.2 channels; set-up: method as in Saponara et al., 2011; conditions: smooth muscle; ref Saponara et al., 2011; cited from earlier work
human TRPC5 [3] = target: T1, human TRPC5; assay: Whole-cell patch clamp of TRPC5-expressing (Tet+) HEK 293 cells; type: cell-based
[4] = target: endogenous TRPC5-containing channels (Mus musculus, UniProt Q9QX29); assay: Ca2+ entry through endogenous channels in differentiated 3T3-L1 cells; type: cell-based; conditions: estimated
Sequence of endogenous TRPC5-containing channels (Q9QX29 whole entry): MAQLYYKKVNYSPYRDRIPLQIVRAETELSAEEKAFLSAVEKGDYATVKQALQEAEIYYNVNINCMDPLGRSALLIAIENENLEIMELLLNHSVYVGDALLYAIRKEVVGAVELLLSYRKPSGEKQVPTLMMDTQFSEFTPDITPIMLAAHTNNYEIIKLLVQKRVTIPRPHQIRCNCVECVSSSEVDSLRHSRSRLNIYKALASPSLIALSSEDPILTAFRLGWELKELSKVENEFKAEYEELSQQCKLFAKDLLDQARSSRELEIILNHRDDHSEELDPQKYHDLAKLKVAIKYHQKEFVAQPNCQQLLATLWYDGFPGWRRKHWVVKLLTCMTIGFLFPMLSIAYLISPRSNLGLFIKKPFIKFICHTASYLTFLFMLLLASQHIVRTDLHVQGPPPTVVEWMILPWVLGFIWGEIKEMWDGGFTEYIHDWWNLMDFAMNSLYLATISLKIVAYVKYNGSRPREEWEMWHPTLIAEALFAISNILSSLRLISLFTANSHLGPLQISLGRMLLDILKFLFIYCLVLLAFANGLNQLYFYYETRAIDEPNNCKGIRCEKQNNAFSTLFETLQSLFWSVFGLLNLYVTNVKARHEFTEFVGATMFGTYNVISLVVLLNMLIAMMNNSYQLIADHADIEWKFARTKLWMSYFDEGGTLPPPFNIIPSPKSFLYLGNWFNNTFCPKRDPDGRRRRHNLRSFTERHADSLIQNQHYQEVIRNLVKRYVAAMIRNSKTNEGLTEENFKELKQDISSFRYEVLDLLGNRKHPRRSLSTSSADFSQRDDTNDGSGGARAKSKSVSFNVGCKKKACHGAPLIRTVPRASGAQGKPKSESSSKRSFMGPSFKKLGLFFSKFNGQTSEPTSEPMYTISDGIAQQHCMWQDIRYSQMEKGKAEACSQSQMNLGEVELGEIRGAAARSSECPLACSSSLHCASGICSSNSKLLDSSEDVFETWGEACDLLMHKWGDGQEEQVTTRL
Sequence of endogenous TRPC5-containing channels (Q61056 whole entry partner): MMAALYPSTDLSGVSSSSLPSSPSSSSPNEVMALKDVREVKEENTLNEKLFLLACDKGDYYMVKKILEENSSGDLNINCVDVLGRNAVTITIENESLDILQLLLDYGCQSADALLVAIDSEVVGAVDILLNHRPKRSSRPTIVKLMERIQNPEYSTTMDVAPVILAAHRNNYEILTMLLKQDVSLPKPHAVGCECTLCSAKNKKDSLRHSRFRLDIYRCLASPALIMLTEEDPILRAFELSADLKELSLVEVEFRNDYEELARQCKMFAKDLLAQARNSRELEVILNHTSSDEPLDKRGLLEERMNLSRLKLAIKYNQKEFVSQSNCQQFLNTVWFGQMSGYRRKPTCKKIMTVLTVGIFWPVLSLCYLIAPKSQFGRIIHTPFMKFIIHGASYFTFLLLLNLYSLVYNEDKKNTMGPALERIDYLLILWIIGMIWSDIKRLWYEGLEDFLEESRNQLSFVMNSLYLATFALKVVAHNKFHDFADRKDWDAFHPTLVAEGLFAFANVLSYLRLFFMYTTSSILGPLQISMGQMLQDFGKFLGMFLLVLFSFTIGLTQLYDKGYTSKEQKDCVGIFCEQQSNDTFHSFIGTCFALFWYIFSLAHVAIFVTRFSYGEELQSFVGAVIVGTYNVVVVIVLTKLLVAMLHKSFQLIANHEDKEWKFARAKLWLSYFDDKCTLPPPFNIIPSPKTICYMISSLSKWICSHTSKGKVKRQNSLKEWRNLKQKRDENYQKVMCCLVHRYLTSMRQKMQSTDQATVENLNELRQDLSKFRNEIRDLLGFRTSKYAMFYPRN
Protocol: The 3T3‐L1 cell line was obtained from the American Type Culture Collection and cultured in DMEM‐F12 containing 10% fetal calf serum (FCS), 100 U·mL^−1 penicillin and 100 μg·mL^−1 streptomycin. To induce differentiation, cells were grown to confluence, and 2 days post‐confluence, the medium was changed to a medium containing 5 μg·mL^−1 insulin, 0.25 μM dexamethasone and 0.5 mM IBMX with 10% FCS and antibiotics. After 48 h, medium was changed to a maintenance medium containing 5 μg·mL^−1 insulin, 10% FCS and antibiotics. Cells were fed with fresh maintenance medium every 2 days until the day of experiments. For all experiments, cells were differentiated for 12–16 days.
Induced (Tet+) and non‐induced (Tet−) cells were plated in poly‐d‐lysine‐coated black 96‐well plates (Corning, Corning, NY, USA) at a confluence of 90% 24 h before experimentation. […] Cells were washed three times with SBS before measurements were made at room temperature (21 ± 2 °C) on a 96‐well fluorescence plate reader (FlexStation II^384, Molecular Devices, Sunnyvale, CA, USA). […] Readings were made every 10 s. Fura‐2 measurements are shown as the fluorescence (F) ratio or change (Δ) in this ratio. Fluo‐4 and XRhod‐1 measurements are shown as absolute fluorescence in arbitrary units or changes in this fluorescence (ΔF). […]

human TRPC5 [5] = target: T1, human TRPC5; assay: Outside-out patch recordings from TRPC5 Tet+ cells; type: cell-based; conditions: 10 μM compound, 100 μM Gd3+

SMILES	IC50 (human TRPC5 [1]) [µM]	effect on Gd3+-evoked Ca2+ entry (natural flavonoid screen) (human TRPC5 [1]; 10 μM, 50 μM Gd3+)	effect on BKCa channels (BKCa channels)	effect on Cav1.2 channels (Cav1.2 channels)	other results
O=c1cc(-c2ccc(O)c(O)c2)oc2cc(O)cc(O)c12 [Luteolin]	> 10	–	–	–	–
O=c1c(O)c(-c2ccc(O)c(O)c2)oc2cc(O)cc(O)c12 [Quercetin]	6.5	inhibitors	stimulated	stimulators	effect on 3T3-L1 cell growth and apoptosis (3T3-L1 cells; ref Hsu and Yen, 2006): inhibited; effect on GABA-evoked ionic currents [2]: inhibited
O=c1c(O)c(-c2cc(O)c(O)c(O)c2)oc2cc(O)cc(O)c12 [Myricetin]	> 10	–	–	stimulators	–
NCCOB(c1ccccc1)c1ccccc1 [2‐aminoethoxydiphenylborate]	–	–	–	–	effect on TRPC5 whole-cell current after galangin (human TRPC5 [3]; 75 μM, applied after Gd3+ and galangin): further inhibited the current

More lines, main results first:

IC50 (human TRPC5 [1]) [µM]	SMILES	effect on Gd3+-evoked Ca2+ entry (natural flavonoid screen) (human TRPC5 [1]; 10 μM, 50 μM Gd3+)	effect on BKCa channels (BKCa channels)	effect on Cav1.2 channels (Cav1.2 channels)	other results
0.45	O=c1c(O)c(-c2ccccc2)oc2cc(O)cc(O)c12 [Galangin]	–	–	inhibited	effect on Gd3+-evoked TRPC5-mediated whole-cell current (human TRPC5 [3]; 10 μM compound, 30 μM Gd3+, Ca2+ or Ba2+ in bath): effective; time to effect on whole-cell current (human TRPC5 [3]; 10 μM, 30 μM Gd3+): ≤ 2 min; effect on TRPC5 current stimulated by S1P (human TRPC5 [3]; whole-cell, 10 μM compound, 5 μM S1P): effective; reversibility on washout (human TRPC5 [3]; whole-cell, 10 μM, Gd3+-evoked current): not readily reversed on washout; effect in 3T3-L1 cells / on adipocyte differentiation (3T3-L1 cells; ref Jung et al., 2012): anti‐adipogenic effects; effect on Gd3+-evoked Ca2+ signal (natural product screen) (human TRPC5 [1]; 10 μM, 30 min pre-incubation, 50 μM Gd3+, fluo-4): inhibitory; IC50 ([4]; fluo-4, 20 μM La3+, read-out: IC50 for inhibition of La3+-evoked Ca2+ entry): 6.05 µM; IC50 ([4]; fluo-4, constitutive activity, read-out: IC50 for inhibition of basal Ca2+): 1.85 µM; effect on TRPC5-mediated current in excised outside-out patches (human TRPC5 [5]): inhibited
3.9	O=c1c(O)c(-c2ccc(O)cc2)oc2cc(O)cc(O)c12 [Kaempferol]	inhibitors	stimulated	stimulators	–
